Test systems include OVCAR-4 ovarian; RPMI-8226 leukemia; A549 NSCLC; OVCAR-8 ovarian; NCI-H226 lung; NCI-H23 lung; IGROV1 ovarian; OVCAR-3 ovarian; SK-OV-3 ovarian; NCI-H460 lung.
Assay in all cases: NCI tumour cell line growth inhibition, 48 h

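These data come from cells grown in 96-well plates and exposed to compound for 48 hours at five concentrations. At the GI50, growth is halved. TGI denotes the concentration required for complete inhibition of growth.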

For `CC(C)(Oc1cccc(N2CCC[C@@H](C(=O)N(Cc3ccc(-c4cn[nH]c4)cc3)C3CC3)C2)c1)C(=O)N1CCNCC1`, the GI50 with OVCAR-4 ovarian was 11.1 µM; with RPMI-8226 leukemia, 7.11 µM; in the assay on A549 NSCLC, 14.1 µM; with OVCAR-8 ovarian it was 18.6 µM; in the assay with NCI-H226 lung it was 5.43 µM; in the assay on NCI-H23 lung it was 14 µM. In addition, the GI50 in the assay on IGROV1 ovarian is 12.3 µM; in the assay on OVCAR-3 ovarian it was 12.4 µM; in the assay on SK-OV-3 ovarian it was 16.9 µM; with NCI-H460 lung, 12.3 µM. Besides, the TGI in the assay with OVCAR-4 ovarian stood at 25.2 µM; in the assay on RPMI-8226 leukemia, 31.3 µM; in the assay on A549 NSCLC, 32.2 µM; with OVCAR-8 ovarian, 42.7 µM; in the assay on NCI-H226 lung, 21 µM; in the assay with NCI-H23 lung, 28.9 µM. The TGI came to 26.8 µM in the assay with IGROV1 ovarian, 26 µM in the assay on OVCAR-3 ovarian, 33.6 µM in the assay with SK-OV-3 ovarian and 27.2 µM in the assay with NCI-H460 lung.

With `Cc1[nH]c(N)nc(=S)c1CCCNc1ccccc1`, the TGI in the assay on OVCAR-4 ovarian, with RPMI-8226 leukemia, in the assay on A549 NSCLC, with OVCAR-8 ovarian, with NCI-H226 lung and in the assay on NCI-H23 lung was > 100 µM throughout. Further, the TGI with IGROV1 ovarian, in the assay on OVCAR-3 ovarian, with SK-OV-3 ovarian and in the assay with NCI-H460 lung was > 100 µM throughout.

As for `CN1C(=O)[C@@H](CC2CCCC2)N(C2CCCC2)c2nc(Nc3cc(Cl)c(O)c(Cl)c3)ncc21`, the GI50 is 25.8 µM in the assay on OVCAR-4 ovarian; 10.4 µM in the assay on RPMI-8226 leukemia; 22.1 µM with A549 NSCLC; 28.4 µM in the assay with OVCAR-8 ovarian; 25 µM in the assay with NCI-H226 lung; 31.3 µM in the assay with NCI-H23 lung. In addition, the GI50 with IGROV1 ovarian is 32.9 µM; with OVCAR-3 ovarian, 21.8 µM; in the assay with SK-OV-3 ovarian it was 17.1 µM; in the assay on NCI-H460 lung it was 23.5 µM. The TGI is > 100 µM with OVCAR-4 ovarian; 49 µM with RPMI-8226 leukemia; > 100 µM in the assay on A549 NSCLC; > 100 µM in the assay on OVCAR-8 ovarian; > 100 µM with NCI-H226 lung; > 100 µM with NCI-H23 lung. Moreover, the TGI in the assay with IGROV1 ovarian is > 100 µM; with OVCAR-3 ovarian, 73.9 µM; with SK-OV-3 ovarian it was 75.9 µM; in the assay with NCI-H460 lung, 90.3 µM.

As to `[pH]1p2[pH]p3p1p3[pH]2.c1cc[c]([Ge]([c]2ccccc2)[c]2ccccc2)cc1.c1cc[c]([Ge]([c]2ccccc2)[c]2ccccc2)cc1.c1cc[c]([Ge]([c]2ccccc2)[c]2ccccc2)cc1`, the GI50 in the assay with OVCAR-4 ovarian is 25.2 µM; in the assay on RPMI-8226 leukemia, 17.6 µM; in the assay with A549 NSCLC, 25.4 µM; in the assay on OVCAR-8 ovarian, 13.5 µM; with NCI-H226 lung, 20.5 µM; in the assay with NCI-H23 lung, 15.3 µM. The GI50 with IGROV1 ovarian is 30 µM; with OVCAR-3 ovarian, 10.9 µM; in the assay on SK-OV-3 ovarian, 15.4 µM; in the assay on NCI-H460 lung it was 6.95 µM. Also, the TGI in the assay with OVCAR-4 ovarian was 56.7 µM; in the assay with RPMI-8226 leukemia it was 75.5 µM; in the assay with A549 NSCLC, > 100 µM; in the assay with OVCAR-8 ovarian, 35.3 µM; in the assay with NCI-H226 lung it was 37.2 µM; in the assay on NCI-H23 lung, 31.2 µM. Moreover, the TGI turned out to be 62.5 µM with IGROV1 ovarian, 23.4 µM in the assay on OVCAR-3 ovarian, 33.8 µM in the assay on SK-OV-3 ovarian and 27.5 µM in the assay on NCI-H460 lung.

The record behind these values is PubChem BioAssay (NCI).
